# From US20240108738A1, “BICYCLIC PEPTIDE LIGANDS SPECIFIC FOR NK CELLS” (Bicycle Tx Limited, priority 2021, published 2024)
# Numbered stars: 1 amine (or outer) side, 2 acyl side, 3 side chain; on linkers, the order of the positions; unused ones are H or OH. Bridge positions count the residues as written; N and C are the ends. Square brackets hold non-standard residues; d marks the D form. Peptide text beside a SMILES is read from it. TATA = O=C(CC[*:1])N1CN(C(=O)CC[*:2])CN(C(=O)CC[*:3])C1; Cba = N[C@@H](CC1CCC1)C(=O)O; Pen = CC(C)(S)[C@H](N)C(=O)O; dNle = CCCC[C@@H](N)C(=O)O; Pip = O=C(O)[C@@H]1CCCCN1
# Molecular target: T1, Fc-tagged human NKp46 (Homo sapiens, UniProt O76036)
# T1 construct: purchased ACROBiosystems NC1-H5257
# Assay: NKp46 SPR assay (Method 1 and/or Method 2)
# Type: binding
# Details: SPR Method 1 and/or Method 2, Table 3B
# Procedure: SPR experiments were performed to determine ka (M^−1s^−1), kd (s^−1), KD (nM) values (where measurable) of various bicyclic peptides to immobilised NKp46.
# For analysis of peptide binding to NKp46, a Biacore 3000 instrument was used with a Cytiva Streptavidin chip. Capture of the protein (recombinant human NKp46-Fc fusion biotinylated via Avi-tag) was carried out at 25° C. with HBS-N (10 mM HEPES, 0.15 M NaCl, pH 7.4) as the running buffer and biotinylated NKp46 was captured to a level of 400-800 RU using a dilution of protein to 0.2 μM in buffer. Buffer was then changed to PBS/0.05% Tween 20 and a dilution series of the peptides was prepared in this buffer with a final DMSO concentration of 0.5% with a top peptide concentration of 100 nM-5000 nM and 6 further 2 or 3-fold dilutions. The SPR analysis was run at 25° C. and a flow rate of 50 μl/min with 60 seconds association and 200-400 seconds dissociation time. Data were corrected for DMSO excluded volume effects. All data were double-referenced for blank injections and reference surface using standard processing procedures and data processing and kinetic fitting were performed using Scrubber software, version 2.0c (BioLogic Software). Data were fitted using simple 1:1 binding model allowing for mass transport effects where appropriate.
# Peptides were tested against Fc-tagged human NKp46 (ACROBiosystems, cat no. NC1-H5257).
# For analysis of peptide binding, a Biacore 8k+ instrument was used with a CM5 chip (Cytiva). All experiments were carried out at 25° C. Anti-human IgG (Fc) antibody (Cytiva) was immobilized on all flow cells by standard amine coupling chemistry. The running buffer was HBS-N(Cytiva, 10 mM HEPES, 0.15 M NaCl, pH 7.4) and the flow rate was 10 μL/min. The carboxymethyl dextran surface was activated with a 1:1 ratio of 0.4 M 1-ethyl-3-(3-dimethylaminopropyl) carbodiimide hydrochloride (EDC)/0.1 M N-hydroxy succinimide (NHS) (Cytiva) for 420s. […] Residual activated groups were blocked with a 420 s injection of 1 M ethanolamine (pH 8.5). The final surface density was 3000-5000 RU. Fc-tagged human NKp46 was diluted to 0.1 μM in HBS-N and was captured on flow cell 2 only of the sensor chip at a flow rate of 10 μL/min to 500-1000 RU. The buffer was then changed to PBS-P+(Cytiva) supplemented with 2% DMSO. […] The flow rate was 50 μL/min with 60 s association and 400 s dissociation. Data were corrected for DMSO volume exclusion effects. All data were double-referenced against blank injections and reference surface response using standard processing procedures. Data processing and kinetic fitting was performed using Biacore Insight Evaluation Software with Extended Screening and Characterization Extension (Cytiva). Data were fitted using steady state affinity 1:1 binding model to determine KD. Data were fitted using kinetic 1:1 binding model to determine kinetic constants where appropriate.
# T1 sequence (O76036 22-304): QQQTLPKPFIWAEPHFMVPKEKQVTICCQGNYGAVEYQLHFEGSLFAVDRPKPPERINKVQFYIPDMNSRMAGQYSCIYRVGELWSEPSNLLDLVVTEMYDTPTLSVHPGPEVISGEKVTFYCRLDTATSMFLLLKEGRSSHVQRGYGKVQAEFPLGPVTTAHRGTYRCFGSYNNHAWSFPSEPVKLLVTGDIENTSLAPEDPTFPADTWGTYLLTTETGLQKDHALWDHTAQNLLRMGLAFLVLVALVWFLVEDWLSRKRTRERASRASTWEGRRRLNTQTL
row,SMILES,Kd
1,"CSCC[C@@H]1NC(=O)[C@H](CCCCN)NC(=O)[C@@H]2CCCN2C(=O)[C@H](Cc2c[nH]cn2)NC(=O)[C@H]([C@@H](C)O)NC(=O)[C@H](CC(N)=O)NC(=O)[C@@H]2CCCN2C(=O)[C@@H]2CSCCC(=O)N3CN(CN(C3)C(=O)CCSC[C@@H](C(=O)N[C@@H](C)C(N)=O)NC1=O)C(=O)CCSC[C@H](NC(=O)[C@H](C)N)C(=O)N[C@@H](CC(C)C)C(=O)N[C@@H](CC(C)C)C(=O)N[C@@H](Cc1c[nH]cn1)C(=O)N[C@@H](CCC(=O)O)C(=O)N[C@@H](Cc1c[nH]cn1)C(=O)N2 [BCY15104, A-(SEQ ID NO: 6)-A] (H-ACLLHEHCPNTHPKMCA-NH2; linker 2-8-16 via TATA)",2880 nM
2,"CC(=O)N[C@H]1CSCCC(=O)N2CN3CN(C2)C(=O)CCSC[C@H](NC(=O)[C@H](CC(C)C)NC(=O)[C@H](Cc2ccc(O)cc2)NC(=O)[C@H](CC(=O)O)NC(=O)[C@@H]2CCCN2C(=O)[C@H](CC2CCC2)NC(=O)[C@H](CCO)NC1=O)C(=O)N[C@H](C)C(=O)N[C@@H](CC(=O)O)C(=O)N[C@@H](CCC(=O)O)C(=O)N[C@@H](Cc1ccc(O)cc1)C(=O)N[C@H](C(N)=O)CSCCC3=O [BCY18434, Ac-(SEQ ID NO: 137)]",44 nM
3,"CCCC[C@H]1NC(=O)[C@@H]2CSCCC(=O)N3CN(CN(C3)C(=O)CCSC[C@H](NC(C)=O)C(=O)N[C@@H](Cc3ccc(O)cc3)C(=O)N[C@@H](CC3CCC3)C(=O)N3CCC[C@H]3C(=O)N[C@@H](CC(=O)O)C(=O)N[C@@H](Cc3ccc(O)cc3)C(=O)N[C@@H](CC(C)C)C(=O)N2)C(=O)CCSC[C@@H](C(N)=O)NC(=O)[C@H](Cc2ccc(O)cc2)NC(=O)[C@H](CCC(=O)O)NC(=O)[C@H](CC(=O)O)NC1=O [BCY19685, Ac-(SEQ ID NO: 149)] (Ac-CY[Cba]PDYLC[dNle]DEYC-NH2; linker 1-8-13 via TATA)",10 nM
4,"CC[C@H](C)[C@@H]1NC(=O)[C@@H]2CSCCC(=O)N3CN(CN(C3)C(=O)CCSC[C@@H](C(=O)N[C@@H](C)C(N)=O)NC(=O)[C@H](C(C)C)NC(=O)CNC(=O)[C@H](Cc3c[nH]c4ccccc34)NC1=O)C(=O)CCSC[C@H](NC(=O)[C@H](C)N)C(=O)N[C@@H](CC(=O)O)C(=O)N[C@@H](CC(C)C)C(=O)N[C@@H]([C@@H](C)O)C(=O)N[C@@H]([C@@H](C)O)C(=O)N[C@@H](Cc1c[nH]cn1)C(=O)N[C@@H](CC(N)=O)C(=O)N2 [BCY14458, A-(SEQ ID NO: 104)-A] (H-ACDLTTHNCIWGVCA-NH2; linker 2-9-14 via TATA; C-terminus assumed)",1260 nM
5,"CC(C)C[C@@H]1NC(=O)[C@@H]2CSCCC(=O)N3CN(CN(C3)C(=O)CCSC[C@@H](C(=O)N[C@@H](C)C(N)=O)NC(=O)[C@H](C(C)C)NC(=O)[C@H](CCCCN)NC(=O)CNC(=O)[C@H]([C@@H](C)O)NC(=O)[C@H](Cc3c[nH]cn3)NC1=O)C(=O)CCSC[C@H](NC(=O)[C@H](C)N)C(=O)N[C@@H](CC(N)=O)C(=O)N[C@@H](CC(C)C)C(=O)N[C@@H](CCC(N)=O)C(=O)N[C@@H](CCC(N)=O)C(=O)N[C@@H](C)C(=O)N2 [BCY14454, A-(SEQ ID NO: 63)-A] (H-ACNLQQACLHTGKVCA-NH2; linker 2-8-15 via TATA; N-terminus assumed)",2760 nM
6,"CC[C@H](C)[C@@H]1NC(=O)CNC(=O)[C@H](Cc2c[nH]c3ccccc23)NC(=O)[C@H](C)NC(=O)[C@@H]2CSCCC(=O)N3CN(CN(C3)C(=O)CCSC[C@@H](C(=O)N[C@@H](C)C(N)=O)NC1=O)C(=O)CCSC[C@H](NC(=O)[C@H](C)N)C(=O)N[C@@H](CC(=O)O)C(=O)N[C@@H](CC(C)C)C(=O)N[C@@H]([C@@H](C)O)C(=O)N[C@@H]([C@@H](C)O)C(=O)N[C@@H](Cc1c[nH]cn1)C(=O)N[C@@H](CC(N)=O)C(=O)N2 [BCY18269, A-(SEQ ID NO: 119)-A] (H-ACDLTTHNCAWGICA-NH2; linker 2-9-14 via TATA)",1640 nM
7,"CC(=O)N[C@H]1CSCCC(=O)N2CN3CN(C2)C(=O)CCSC(C)(C)[C@@H](C(N)=O)NC(=O)[C@H](Cc2ccc(O)cc2)NC(=O)[C@H](CCC(=O)O)NC(=O)[C@H](CC(=O)O)NC(=O)[C@@H](C)NC(=O)[C@H](CSCCC3=O)NC(=O)[C@H](CC(C)C)NC(=O)[C@H](Cc2ccc(O)cc2)NC(=O)[C@H](CC(=O)O)NC(=O)[C@@H]2CCCN2C(=O)[C@H](CC2CCC2)NC(=O)[C@H](Cc2ccc(O)cc2)NC1=O [BCY19691, Ac-(SEQ ID NO: 155)] (Ac-CY[Cba]PDYLC[dA]DEY[Pen]-NH2; linker 1-8-13 via TATA)",> 500 nM

# More lines, in order of falling Kd, values ahead:
row,Kd,SMILES
1,4030 nM,"CSCC[C@@H]1NC(=O)[C@@H]2CSCCC(=O)N3CN(CN(C3)C(=O)CCSC[C@@H](C(=O)N[C@@H](C)C(N)=O)NC(=O)[C@H](C(C)C)NC(=O)[C@H](CCCCN)NC(=O)CNC(=O)[C@H]([C@@H](C)O)NC(=O)[C@H](CC(C)C)NC1=O)C(=O)CCSC[C@H](NC(=O)[C@H](C)N)C(=O)N[C@@H](CC(N)=O)C(=O)N[C@@H](CC(C)C)C(=O)N[C@@H](CCC(N)=O)C(=O)N[C@@H](C)C(=O)N1CCCC[C@H]1C(=O)N2 [BCY19701, A-(SEQ ID NO: 92)-A] (H-ACNLQA[Pip]CMLTGKVCA-NH2; linker 2-8-15 via TATA)"
2,3140 nM,"CC(C)C[C@@H]1NC(=O)[C@H](CC(N)=O)NC(=O)[C@@H](NC(=O)[C@H](C)N)CSCCC(=O)N2CN3CN(C2)C(=O)CCSC[C@H](NC(=O)[C@@H]2CCCN2C(=O)[C@H](C)NC(=O)[C@H](CCC(N)=O)NC1=O)C(=O)N[C@@H](CC(C)C)C(=O)N[C@@H](Cc1c[nH]cn1)C(=O)N[C@@H]([C@@H](C)O)C(=O)NCC(=O)N[C@@H](CCCCN)C(=O)N[C@@H](C(C)C)C(=O)N[C@H](C(=O)N[C@@H](C)C(N)=O)CSCCC3=O [BCY19712, A-(SEQ ID NO: 101)-A] (H-ACNLQAPCLHTGKVCA-NH2; linker 2-8-15 via TATA; C-terminus assumed)"
3,2750 nM,"CSCC[C@@H]1NC(=O)[C@@H]2CSCCC(=O)N3CN(CN(C3)C(=O)CCSC[C@@H](C(=O)N[C@@H](C)C(N)=O)NC(=O)[C@H](C(C)C)NC(=O)[C@H](CCCCN)NC(=O)CNC(=O)[C@H]([C@@H](C)O)NC(=O)[C@H](Cc3c[nH]cn3)NC1=O)C(=O)CCSC[C@H](NC(=O)[C@H](C)N)C(=O)N[C@@H](CC(N)=O)C(=O)N[C@@H](CC(C)C)C(=O)N[C@@H](CCC(N)=O)C(=O)N[C@@H](C)C(=O)N1CCC[C@H]1C(=O)N2 [BCY19711, A-(SEQ ID NO: 100)-A] (H-ACNLQAPCMHTGKVCA-NH2; linker 2-8-15 via TATA; N-terminus assumed)"
4,1800 nM,"CSCC[C@@H]1NC(=O)[C@@H]2CSCCC(=O)N3CN(CN(C3)C(=O)CCSC[C@@H](C(=O)N[C@@H](C)C(N)=O)NC(=O)[C@H](C(C)C)NC(=O)[C@H](CCCCN)NC(=O)CNC(=O)[C@H]([C@@H](C)O)NC(=O)[C@H](CC(C)C)NC1=O)C(=O)CCSC[C@H](NC(=O)[C@H](C)N)C(=O)N[C@@H](CC(N)=O)C(=O)N[C@@H](CC(C)C)C(=O)N[C@@H](CCC(N)=O)C(=O)N[C@@H](C)C(=O)N[C@@H](C)C(=O)N2 [BCY18299, A-(SEQ ID NO: 64)-A] (H-ACNLQAACMLTGKVCA-NH2; linker 2-8-15 via TATA; N-terminus assumed)"
5,1510 nM,"CSCC[C@@H]1NC(=O)[C@@H]2CSCCC(=O)N3CN(CN(C3)C(=O)CCSC[C@@H](C(=O)N[C@@H](C)C(N)=O)NC(=O)[C@H](C(C)C)NC(=O)[C@H](CCCCN)NC(=O)CNC(=O)[C@H]([C@@H](C)O)NC(=O)[C@H](CCC(=O)O)NC1=O)C(=O)CCSC[C@H](NC(=O)[C@H](C)N)C(=O)N[C@@H](CC(N)=O)C(=O)N[C@@H](CC(C)C)C(=O)N[C@@H](CCC(N)=O)C(=O)N[C@@H](C)C(=O)N1CCC[C@H]1C(=O)N2 [BCY18316, A-(SEQ ID NO: 78)-A] (H-ACNLQAPCMETGKVCA-NH2; linker 2-8-15 via TATA; C-terminus assumed)"
6,1110 nM,"CC[C@H](C)[C@@H]1NC(=O)CNC(=O)[C@H](Cc2c[nH]c3ccccc23)NC(=O)[C@H](CCC(N)=O)NC(=O)[C@@H]2CSCCC(=O)N3CN(CN(C3)C(=O)CCSC[C@H](N)C(=O)N[C@@H](CC(=O)O)C(=O)N[C@@H](CC(C)C)C(=O)N[C@@H]([C@@H](C)O)C(=O)N[C@@H]([C@@H](C)O)C(=O)N[C@@H](Cc3c[nH]cn3)C(=O)N[C@@H](CC(N)=O)C(=O)N2)C(=O)CCSC[C@@H](C(=O)N[C@@H](C)C(N)=O)NC1=O [BCY19718, (SEQ ID NO: 11)-A] (H-CDLTTHNCQWGICA-NH2; linker 1-8-13 via TATA)"
